Activity calls are given as the source filed them.
Key:
[1] = test system: Vero; experiment: viability of Vero cells under compound – cytotoxicity control for flavivirus capping enzyme inhibitors (AID 588742); type: functional; conditions: Chlorocebus sabaeus
[2] = molecular target: Genome polyprotein (dengue virus type 2, UniProt P29990); experiment: flavivirus cap methylation enzyme inhibition – biochemical, confirmation dose response, primary screen (AID 588689); type: functional
[3] = CCR5-tropic HIV-1 fusion blockers – cell-based, CCR5-tropic Env, dose response (AID 2279); type: functional
[4] = molecular target: Induced myeloid leukemia cell differentiation protein Mcl-1 (Homo sapiens, UniProt Q07820); type: functional
[5] = molecular target: FAD-linked sulfhydryl oxidase ALR (Homo sapiens, UniProt P55789); experiment: ALR-catalysed DTT oxidation blockers – biochemical, H2O2 detection, luminescence, cherry-pick, dose response (AID 493248)
[6] = molecular target: Neuropeptide Y receptor type 1 (Homo sapiens, UniProt P25929); type: functional;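 also: HEK293 cells with a CNG channel challenged with NPY then isoproterenol; potency as antagonist that reverses NPY suppression of cAMP signal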
[7] = molecular target: Neuropeptide Y receptor type 2 (Homo sapiens, UniProt P49146); type: functional, cell-based;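 also: HEK293 cells expressing the receptor and a CNG channel; stimulus was NPY near EC95 followed by isoproterenol to raise cAMP; antagonist potency measured as restoring cAMP signal that NPY suppresses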
[8] = fluconazole-exposed Candida albicans growth modulators – fluorescence, retest, confirmation (AID 2467); type: functional, cell-based
[9] = test system: Vero; experiment: mammalian cell viability reduction – secondary assay, cytotoxicity control for West Nile virus antiviral project, dose response (AID 1650); type: functional; conditions: Chlorocebus sabaeus
[10] = NIH-3T3 fibroblast cytotoxicity, dose response, cytotoxicity control, cell-based, fluorescence, Alamar Blue, secondary assay (AID 2327); type: functional;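 also: NIH-3T3 mouse fibroblasts cultured with fluconazole at 8 µg/mL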
[11] = molecular target: T1, NADPH oxidase 1 (Homo sapiens, UniProt Q9Y5S8); experiment: Late-stage luminescence-based cell-based dose response assay to identify inhibitors of NADPH oxidase 1 (NOX1): Synthesized analogs 2.; type: functional
T1 sequence (Q9Y5S8 whole entry): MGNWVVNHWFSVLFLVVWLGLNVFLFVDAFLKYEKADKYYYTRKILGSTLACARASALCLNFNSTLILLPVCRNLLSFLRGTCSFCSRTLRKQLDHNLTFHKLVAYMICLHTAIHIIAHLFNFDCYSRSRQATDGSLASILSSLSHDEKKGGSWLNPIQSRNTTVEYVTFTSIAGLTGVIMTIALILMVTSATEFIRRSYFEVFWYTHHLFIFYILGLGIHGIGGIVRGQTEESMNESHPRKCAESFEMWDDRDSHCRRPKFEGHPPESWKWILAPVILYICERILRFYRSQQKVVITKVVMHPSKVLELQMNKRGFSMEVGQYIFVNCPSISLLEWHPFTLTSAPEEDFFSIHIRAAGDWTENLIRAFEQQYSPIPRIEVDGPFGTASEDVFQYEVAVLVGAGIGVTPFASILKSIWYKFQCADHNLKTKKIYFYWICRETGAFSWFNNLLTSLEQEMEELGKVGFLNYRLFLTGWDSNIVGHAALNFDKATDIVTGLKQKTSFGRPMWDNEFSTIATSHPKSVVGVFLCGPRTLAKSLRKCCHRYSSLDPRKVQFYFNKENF

[12] = antiviral protection against BTV-induced cell death – arbovirus, BSR cells, confirmation (AID 1250); type: functional;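 also: protection from viral cytopathic effect measured as cell viability by ATP luminescence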
[13] = Luminescence Cell-Based Dose Response to Identify Activators of 5'UTR Stem-Loop Driven Prion Protein mRNA Translation in H4-C Neuroglioblastoma Cells. [Related pubchem assays: 1829 (Project Summary), 1814 (Primary HTS)]; type: functional
[14] = Luminescence Cell-Based Dose Response HTS to Identify Activators of Luciferase Translation or Activity in H4 […] Cells. [Related pubchem assays: 1829 (Project Summary), 1814 (Primary HTS)]; type: functional
[15] = test system: H4; experiment: Luminescence Cell-Based Dose Response HTS to Identify Activators of 5'UTR Stem-Loop Driven Prion Protein mRNA Translation in H4 Neuroglioblastoma Cells. [Related pubchem assays: 1829 (Project Summary), 1814 (Primary HTS)]; type: functional; conditions: Homo sapiens
[16] = Luminescence Cell-Based Dose Response to Identify Activators of Luciferase Translation or Activity in H4-C Neuroglioblastoma Cells. [Related pubchem assays: 1829 (Project Summary), 1814 (Primary HTS)]; type: functional
[17] = Luminescence Cell-Based Dose Confirmation to Identify Activators of 5'UTR Stem-Loop Driven Alpha-Synuclein mRNA Translation in H4 Neuroglioblastoma Cells. [Related pubchem assays: 1829 (Project Summary), 1814 (Primary HTS)]; type: functional
[18] = molecular target: T1, NADPH oxidase 1; experiment: Late-stage luminescence-based cell-based dose response assay to identify inhibitors of NADPH oxidase 1 (NOX1): Purchased analogs 2.; type: functional
[19] = M. tuberculosis H37Rv growth inhibitors, H37Rv strain (AID 1626); type: functional

Chain of Neuropeptide Y receptor type 2 (P49146 whole entry): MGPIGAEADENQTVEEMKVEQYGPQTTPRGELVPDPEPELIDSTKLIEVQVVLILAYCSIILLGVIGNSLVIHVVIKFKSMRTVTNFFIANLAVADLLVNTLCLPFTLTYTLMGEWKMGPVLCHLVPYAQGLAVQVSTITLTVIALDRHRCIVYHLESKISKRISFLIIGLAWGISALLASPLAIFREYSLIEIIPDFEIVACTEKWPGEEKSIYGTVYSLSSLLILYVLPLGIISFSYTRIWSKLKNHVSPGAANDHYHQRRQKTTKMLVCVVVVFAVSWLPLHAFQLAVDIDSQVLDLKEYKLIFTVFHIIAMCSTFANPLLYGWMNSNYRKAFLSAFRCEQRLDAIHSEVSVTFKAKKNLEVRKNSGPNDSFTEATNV
Chain of Induced myeloid leukemia cell differentiation protein Mcl-1 (Q07820 whole entry): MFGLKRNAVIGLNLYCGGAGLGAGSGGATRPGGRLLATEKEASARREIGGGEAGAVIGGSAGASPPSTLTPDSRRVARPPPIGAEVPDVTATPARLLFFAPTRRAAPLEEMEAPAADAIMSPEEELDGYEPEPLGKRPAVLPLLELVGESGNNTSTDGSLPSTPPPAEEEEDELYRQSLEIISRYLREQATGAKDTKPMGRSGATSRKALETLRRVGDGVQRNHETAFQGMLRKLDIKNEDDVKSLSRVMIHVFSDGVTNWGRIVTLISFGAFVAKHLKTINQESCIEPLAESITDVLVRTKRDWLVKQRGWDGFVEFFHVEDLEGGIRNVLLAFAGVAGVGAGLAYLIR
Chain of FAD-linked sulfhydryl oxidase ALR (P55789 whole entry): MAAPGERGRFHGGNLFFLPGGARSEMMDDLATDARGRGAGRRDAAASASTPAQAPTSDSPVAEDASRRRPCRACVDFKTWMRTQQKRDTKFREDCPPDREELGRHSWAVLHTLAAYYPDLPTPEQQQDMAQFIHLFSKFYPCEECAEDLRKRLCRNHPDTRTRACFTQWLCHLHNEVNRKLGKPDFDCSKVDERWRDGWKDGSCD
Chain of Neuropeptide Y receptor type 1 (P25929 whole entry): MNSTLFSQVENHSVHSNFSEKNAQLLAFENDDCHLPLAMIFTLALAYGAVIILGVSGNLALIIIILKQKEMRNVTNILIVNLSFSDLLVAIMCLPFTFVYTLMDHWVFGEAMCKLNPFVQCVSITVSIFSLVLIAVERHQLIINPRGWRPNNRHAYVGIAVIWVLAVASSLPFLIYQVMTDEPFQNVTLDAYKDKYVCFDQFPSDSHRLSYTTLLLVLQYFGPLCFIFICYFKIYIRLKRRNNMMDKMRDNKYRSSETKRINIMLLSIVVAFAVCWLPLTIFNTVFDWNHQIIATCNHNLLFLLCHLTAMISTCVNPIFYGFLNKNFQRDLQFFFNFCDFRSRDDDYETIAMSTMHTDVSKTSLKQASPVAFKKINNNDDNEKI
Chain of Genome polyprotein (P29990 2492-3391 limits assumed): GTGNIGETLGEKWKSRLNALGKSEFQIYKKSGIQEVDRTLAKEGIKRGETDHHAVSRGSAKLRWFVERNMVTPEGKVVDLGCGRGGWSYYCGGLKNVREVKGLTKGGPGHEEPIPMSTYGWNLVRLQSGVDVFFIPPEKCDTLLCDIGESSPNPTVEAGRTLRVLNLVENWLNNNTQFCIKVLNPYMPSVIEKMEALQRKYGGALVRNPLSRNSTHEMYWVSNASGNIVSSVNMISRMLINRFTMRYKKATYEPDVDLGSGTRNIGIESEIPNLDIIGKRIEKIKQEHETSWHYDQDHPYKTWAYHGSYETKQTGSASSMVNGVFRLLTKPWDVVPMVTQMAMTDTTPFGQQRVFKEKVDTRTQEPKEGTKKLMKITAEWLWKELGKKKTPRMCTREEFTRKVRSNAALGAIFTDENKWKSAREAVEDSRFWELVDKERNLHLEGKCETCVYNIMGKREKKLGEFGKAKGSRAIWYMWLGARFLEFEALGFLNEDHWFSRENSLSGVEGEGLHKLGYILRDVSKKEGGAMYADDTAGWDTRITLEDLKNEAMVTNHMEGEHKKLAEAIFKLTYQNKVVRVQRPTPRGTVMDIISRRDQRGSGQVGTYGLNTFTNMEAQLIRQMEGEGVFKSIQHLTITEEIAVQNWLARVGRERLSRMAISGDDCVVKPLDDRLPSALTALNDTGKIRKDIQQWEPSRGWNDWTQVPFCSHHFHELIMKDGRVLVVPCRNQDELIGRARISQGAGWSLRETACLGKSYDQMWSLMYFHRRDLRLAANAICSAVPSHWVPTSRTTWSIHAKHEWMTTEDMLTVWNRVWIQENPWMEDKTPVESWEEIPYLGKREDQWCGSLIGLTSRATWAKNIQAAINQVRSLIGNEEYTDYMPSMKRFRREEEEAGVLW

CN(C)S(=O)(=O)c1cccc(-c2nn(-c3ccccc3)cc2/C=C2\SC(=S)N(CC(=O)O)C2=O)c1
CC50 [1]: > 40 µM (active) | IC50 [2]: 79.5 µM (active) | IC50 [3]: 48.8 µM (active) | IC50 [4]: 4.8 µM (active) | AC50 [5]: 15.5 µM (active)

CCN(CC)CC#CCC(C)(c1ccccc1)c1ccccc1
IC50 [6]: < 12 µM (not active) | IC50 [7]: 6.17 µM (active)

Nc1nsc2ccccc12
EC50 [8]: 3.19 µM (active) | CC50 [9]: 41.7 µM (active) | EC50 [10]: 24.5 µM (inconclusive)

O=C(c1ccccc1)c1ccccc1N1c2ccccc2Sc2ccccc21
IC50 [11]: > 50 µM (not active)

CCc1cc(C(=O)O)c(NC(=O)C(c2ccccc2)c2ccccc2)s1
IC50 [12]: 23.2 µM (active)

S=C(c1ccc(-c2ccc(Br)cc2)o1)N1CCOCC1
EC50 [13]: 507 nM (active) | EC50 [14]: < 100 nM (active) | EC50 [15]: 18.6 µM (inconclusive) | EC50 [16]: 378 nM (active) | EC50 [17]: 251 nM (active)

Cc1cc(Cl)ccc1NC(=S)NNC(=S)Nc1ccc(Cl)cc1C
IC50 [18]: 3.51 µM (active)

CCOC(=O)c1ccc(NCc2ccc(N(C)C)cc2)cc1
IC50 [19]: > 100 µM (active)

Source: ChEMBL document CHEMBL1201862, “PubChem BioAssay data set” (2004)
